Test systems include OVCAR-3; UO-31; NCI-H226; RPMI-8226; Malme-3M; NCI-H23; A498; MOLT-4; ACHN; TK-10; SF-268; HCT-15; M14; SK-MEL-2; SN12C; HCT-116; SK-MEL-28; NCI-H460; OVCAR-5; SK-MEL-5.
Assay in all cases: NCI-60 cell line screen, 48 h

Molecules are shown by their SMILES.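 Following 48 hours of exposure in 96-well plates, responses at five concentrations were used to interpolate endpoints linearly. GI50 marks 50% less growth.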 Calls of active or inactive are those of the source. Rule as the data show it: active = GI50 up to about 1.1 µM and inactive = higher.

As to `N#CC1=C(O)NC(O)=C(C#N)C1c1c(Cl)cccc1Cl`, the GI50 in the assay with OVCAR-3 is 32.9 µM (inactive); in the assay with UO-31 it was 37.9 µM (inactive); with NCI-H226, 17.9 µM (inactive); with RPMI-8226, > 100 µM (inactive); in the assay on Malme-3M, 23.1 µM (inactive); with NCI-H23, 29.4 µM (inactive). The GI50 with A498 was 23.2 µM (inactive); in the assay on MOLT-4 it was > 100 µM (inactive); in the assay on ACHN, 33.3 µM (inactive); in the assay with TK-10, 40.4 µM (inactive); with SF-268 it was 30.9 µM (inactive); with HCT-15, 20.4 µM. The GI50 is 26.9 µM (inactive) in the assay on M14; 18.8 µM (inactive) with SK-MEL-2; 31.8 µM (inactive) in the assay on SN12C; 29 µM (inactive) in the assay on HCT-116; 22.2 µM (inactive) with SK-MEL-28; 20.9 µM (inactive) with NCI-H460. Besides, the GI50 was 33.5 µM (inactive) in the assay on OVCAR-5 and 27.3 µM (inactive) with SK-MEL-5.

Values taken from ChEMBL document CHEMBL1201862, “PubChem BioAssay data set” (2004).
